{"source": "patent US7138361B2", "about": "“Herbicidal heterocycles” (E. I. du Pont de Nemours and Company, priority 2000, dated 2006)", "type_in_all_cases": "in vivo", "key": {"[1]": {"tested_on": "cocklebur (Xanthium strumarium)", "assay": "Test B preemergence", "procedure,_shortened": "(§1)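 Ratings on a 0 to 100 visual scale (100 complete control) compare treated plants with controls 13 to 15 days after application. Treatments were pre- or postemergence sprays of compound in non-phytotoxic solvent with surfactant.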"}, "[2]": {"tested_on": "pigweed (Amaranthus retroflexus)", "assay": "Test B preemergence", "procedure,_shortened": "as §1"}, "rice (Oryza saliva)": {"tested_on": "rice (Oryza saliva)", "assay": "Test B preemergence", "procedure,_shortened": "as §1"}, "[3]": {"tested_on": "crabgrass (Digitaria sanguinalis)", "assay": "Test B preemergence", "procedure,_shortened": "as §1"}, "[4]": {"tested_on": "giant foxtail (Setaria faberii)", "assay": "Test B preemergence", "procedure,_shortened": "as §1"}, "corn (Zea mays) [5]": {"tested_on": "corn (Zea mays)", "assay": "Test B preemergence", "procedure,_shortened": "as §1"}, "[6]": {"tested_on": "Surinam grass (Brachiaria decumbens)", "assay": "Test B preemergence", "procedure,_shortened": "as §1"}, "[7]": {"tested_on": "lambsquarters (Chenopodium album)", "assay": "Test B preemergence", "procedure,_shortened": "as §1"}, "[8]": {"tested_on": "morning glory (Ipomoea hederacea)", "assay": "Test B preemergence", "procedure,_shortened": "as §1"}, "Nightshade": {"tested_on": "Nightshade", "assay": "Test C preemergence", "conditions": "Rate 500 g/ha, visual evaluation after 12 to 14 days"}, "kochia (Kochia scoparia)": {"tested_on": "kochia (Kochia scoparia)", "assay": "Test C postemergence", "procedure,_shortened": "(§2)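 Response scores (0 no effect to 100 complete control) came from visual comparison with untreated controls 12 to 14 days after treatment. Preemergence application was made to seeded soil; postemergence, to plants at the 1- to 4-leaf stage.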"}, "[9]": {"tested_on": "cocklebur (Xanthium strumarium)", "assay": "Test C postemergence", "procedure,_shortened": "as §2"}, "[10]": {"tested_on": "goosegrass (Eleusine indica)", "assay": "Test C postemergence", "procedure,_shortened": "as §2"}, "[11]": {"tested_on": "pigweed (Amaranthus retroflexus)", "assay": "Test C postemergence", "procedure,_shortened": "as §2"}, "[12]": {"tested_on": "morningglory (Ipomoea hederacea)", "assay": "Test C postemergence", "procedure,_shortened": "as §2"}, "[13]": {"tested_on": "crabgrass (Digitaria sanguinalis)", "assay": "Test C postemergence", "procedure,_shortened": "as §2"}, "soybean (Glycine max)": {"tested_on": "soybean (Glycine max)", "assay": "Test C postemergence", "procedure,_shortened": "as §2"}, "[14]": {"tested_on": "giant foxtail (Setaria faberii)", "assay": "Test C postemergence", "conditions": "scale 0 to 100 (0 no effect, 100 complete control)", "procedure,_shortened": "as §2"}, "corn (Zea mays) [15]": {"tested_on": "corn (Zea mays)", "assay": "Test C postemergence", "procedure,_shortened": "as §2"}, "[16]": {"tested_on": "velvetleaf (Abutilon theophrasti)", "assay": "Test C postemergence", "procedure,_shortened": "as §2"}, "[17]": {"tested_on": "bermudagrass (Cynodon dactylon)", "assay": "Test C postemergence", "procedure,_shortened": "as §2"}, "[18]": {"tested_on": "Surinam grass (Brachiaria decumbens)", "assay": "Test C postemergence", "procedure,_shortened": "as §2"}, "[19]": {"tested_on": "yellow nutsedge (Cyperus esculentus)", "assay": "Test C postemergence", "procedure,_shortened": "as §2"}, "[20]": {"conditions": "Preemergence, Rate 500 g/ha, scale 0 to 100, 0 no effect, 100 complete control"}, "[21]": {"conditions": "preemergence, Rate 125 g/ha, scale of 0 to 100 where 0 is no effect and 100 is complete control, 13 to 15 days"}, "[22]": {"conditions": "Rate 250 g/ha, scale 0 to 100 (0 no effect, 100 complete control)"}, "[23]": {"conditions": "Rate 500 g/ha, scale 0 to 100 (0 no effect, 100 complete control)"}, "[24]": {"conditions": "Rate 125 g/ha, scale 0 to 100, 0 no effect, 100 complete control"}}, "data": [{"smiles": "COc1cc(N2CCC(n3ccc(C(C)C)n3)C2=O)ccc1Br", "note": "(stereo not shown) [Compound 140]", "values": [{"measurement": "Plant response rating, Cocklebur", "setting": "[1]; [20]", "result": 60}, {"measurement": "Plant response rating, Cocklebur", "setting": "[1]; [21]", "result": 20}, {"measurement": "Plant response rating, Pigweed", "setting": "[2]; [20]", "result": 100}, {"measurement": "Plant response rating, Pigweed", "setting": "[2]; [21]", "result": 100}, {"measurement": "Plant response rating, Rice", "setting": "rice (Oryza saliva); [20]", "result": 40}, {"measurement": "Plant response rating, Rice", "setting": "rice (Oryza saliva); [21]", "result": 20}, {"measurement": "Plant response rating, Crabgrass", "setting": "[3]; [20]", "result": 100}, {"measurement": "Plant response rating, Crabgrass", "setting": "[3]; [21]", "result": 100}, {"measurement": "Plant response rating, Foxtail, Giant", "setting": "[4]; [20]", "result": 100}, {"measurement": "Plant response rating, Foxtail, Giant", "setting": "[4]; [21]", "result": 100}, {"measurement": "Plant response rating, Corn", "setting": "corn (Zea mays) [5]; [20]", "result": 20}, {"measurement": "Plant response rating, Corn", "setting": "corn (Zea mays) [5]; [21]", "result": 0}, {"measurement": "Plant response rating, Surinam grass", "setting": "[6]; [20]", "result": 100}, {"measurement": "Plant response rating, Surinam grass", "setting": "[6]; [21]", "result": 100}, {"measurement": "Plant response rating, Lambsquarters", "setting": "[7]; [20]", "result": 100}, {"measurement": "Plant response rating, Lambsquarters", "setting": "[7]; [21]", "result": 100}, {"measurement": "Plant response rating, Morningglory", "setting": "[8]; [20]", "result": 100}, {"measurement": "Plant response rating, Morningglory", "setting": "[8]; [21]", "result": 0}, {"measurement": "Plant response rating (0 to 100), Nightshade", "setting": "Nightshade", "result": 100}, {"measurement": "Plant response rating, Kochia", "setting": "kochia (Kochia scoparia); Rate 62 g/ha, scale 0 to 100", "result": 40}, {"measurement": "Plant response rating, Kochia", "setting": "kochia (Kochia scoparia); [22]", "result": 90}, {"measurement": "Plant response rating, Kochia", "setting": "kochia (Kochia scoparia); [23]", "result": 90}, {"measurement": "Plant response rating, Cocklebur", "setting": "[9]; Rate 62 g/ha, scale 0 to 100", "result": 40}, {"measurement": "Plant response rating, Cocklebur", "setting": "[9]; [22]", "result": 80}, {"measurement": "Plant response rating, Cocklebur", "setting": "[9]; [23]", "result": 100}, {"measurement": "Plant response rating, Goosegrass", "setting": "[10]; Rate 62 g/ha, scale 0 to 100", "result": 20}, {"measurement": "Plant response rating, Goosegrass", "setting": "[10]; [22]", "result": 80}, {"measurement": "Plant response rating, Pigweed", "setting": "[11]; Rate 62 g/ha, scale 0 to 100", "result": 30}, {"measurement": "Plant response rating, Pigweed", "setting": "[11]; [22]", "result": 80}, {"measurement": "Plant response rating, Pigweed", "setting": "[11]; [23]", "result": 80}, {"measurement": "Plant response rating, Morningglory", "setting": "[12]; Rate 62 g/ha, scale 0 to 100", "result": 60}, {"measurement": "Plant response rating, Morningglory", "setting": "[12]; [22]", "result": 100}, {"measurement": "Plant response rating, Morningglory", "setting": "[12]; [23]", "result": 100}, {"measurement": "Plant response rating, Crabgrass", "setting": "[13]; Rate 62 g/ha, scale 0 to 100", "result": 40}, {"measurement": "Plant response rating, Crabgrass", "setting": "[13]; [22]", "result": 70}, {"measurement": "Plant response rating, Crabgrass", "setting": "[13]; [23]", "result": 70}, {"measurement": "Plant response rating, Soybean", "setting": "soybean (Glycine max); Rate 62 g/ha, scale 0 to 100", "result": 70}, {"measurement": "Plant response rating, Soybean", "setting": "soybean (Glycine max); [22]", "result": 90}, {"measurement": "Plant response rating, Soybean", "setting": "soybean (Glycine max); [23]", "result": 90}, {"measurement": "Plant response rating, Foxtail, Giant", "setting": "[14]; Rate 250 g/ha", "result": 90}, {"measurement": "Plant response rating, Foxtail, Giant", "setting": "[14]; Rate 500 g/ha", "result": 90}, {"measurement": "Plant response rating, Corn", "setting": "corn (Zea mays) [15]; Rate 62 g/ha, scale 0 to 100", "result": 0}, {"measurement": "Plant response rating, Corn", "setting": "corn (Zea mays) [15]; [22]", "result": 0}, {"measurement": "Plant response rating, Corn", "setting": "corn (Zea mays) [15]; [23]", "result": 0}, {"measurement": "Plant response rating, Corn", "setting": "corn (Zea mays) [15]; scale 0 to 100", "result": 0}, {"measurement": "Plant response rating, Velvetleaf", "setting": "[16]; Rate 62 g/ha, scale 0 to 100", "result": 20}, {"measurement": "Plant response rating, Velvetleaf", "setting": "[16]; [22]", "result": 70}, {"measurement": "Plant response rating, Velvetleaf", "setting": "[16]; [23]", "result": 70}, {"measurement": "Plant response rating, Velvetleaf", "setting": "[16]; scale 0 to 100", "result": 20}, {"measurement": "Plant response rating, Bermudagrass", "setting": "[17]; Rate 62 g/ha, scale 0 to 100", "result": 30}, {"measurement": "Plant response rating, Bermudagrass", "setting": "[17]; [24]", "result": 40}, {"measurement": "Plant response rating, Bermudagrass", "setting": "[17]; [22]", "result": 70}, {"measurement": "Plant response rating, Bermudagrass", "setting": "[17]; [23]", "result": 90}, {"measurement": "Plant response rating, Surinam grass", "setting": "[18]; Rate 62 g/ha, scale 0 to 100", "result": 30}, {"measurement": "Plant response rating, Surinam grass", "setting": "[18]; [24]", "result": 30}, {"measurement": "Plant response rating, Surinam grass", "setting": "[18]; [22]", "result": 90}, {"measurement": "Plant response rating, Nutsedge", "setting": "[19]; Rate 62 g/ha, scale 0 to 100", "result": 0}, {"measurement": "Plant response rating, Nutsedge", "setting": "[19]; [22]", "result": 20}]}]}
